According to US4298610A, “Ester derivatives of quinolopyran-4-one-2-carboxylic acids and antiallergic antasthmatics” (priority 1978, dated 1981):

System: passive cutaneous anaphylaxis
Test: passive cutaneous anaphylaxis test (P.C.A.) on rats, oral administration
Assay type: in vivo, rat (SLC Wister)
Details: 0.5 h, rat, antigen 30 minutes after administration, read-out: Percent inhibition (%)
Experimental: Various 5-hydroxy-quinolopyran-4-one-2-carboxylic acid esters in terms of the R group represented by the general formula [I] were prepared. […] In order to estimate the efficacy of each compound as an anti-allergic antasthmatic, the efficacy was evaluated according to a passive cutaneous anaphylaxis test (P.C.A.) on rats.
To SLC Wister rats were administered intracutaneously egg white albumin recrystallized 5 times and Bodetallapertussis Vaccine, and serum was collected after 13 days from the rats. […] A physiological salt solution in which egg white albumin and a dye (Evans' blue) were dissolved was administered intravenously, 30 minutes after the oral administration, to the rats; and 30 minutes thereafter the back skins of the rats were peeled off. The dye that transuded from the peeled skin was extracted with Na2 SO4 and acetone, and the quantities of the dye were measured by colorimetry at 620 m μ.

Row | Compound | inhibition in vivo at 30 mg/kg | inhibition in vivo at 100 mg/kg
1 | Cc1ccc2c(nc(O)c3c(=O)cc(C(=O)OCCCC(C)C)oc32)c1C [4-methyl-1-pentyl ester of 7,8-dimethyl-5-hydroxy-quinolo[4,3-b]pyran-4-one-2-carboxylic acid] | 78.5% | 
2 | CCCCC(C)OC(=O)c1cc(=O)c2c(O)nc3c(C)c(C)ccc3c2o1 (stereo not shown) [2-hexyl ester of 7,8-dimethyl-5-hydroxy-quinolo[4,3-b]pyran-4-one-2-carboxylic acid] | 94.7% | 
3 | Cc1ccc2c(nc(O)c3c(=O)cc(C(=O)OCCO)oc32)c1C [2-hydroxy-ethyl ester of 7,8-dimethyl-5-hydroxy-quinolo[4,3-b]pyran-4-one-2-carboxylic acid, reference compound] |  | 21.4%
4 | CCCCc1ccc2nc(O)c3c(=O)cc(C(=O)OCCC(C)C)oc3c2c1 [3-methyl-1-butyl ester of 9-n-butyl-5-hydroxy-quinolo[4,3-b]pyran-4-one-2-carboxylic acid] | 64.5% | 
5 | Cc1ccc2c(nc(O)c3c(=O)cc(C(=O)OCC(O)CO)oc32)c1C (stereo not shown) [2,3-dihydroxy-propyl ester of 7,8-dimethyl-5-hydroxy-quinolo[4,3-b]pyran-4-one-2-carboxylic acid, reference compound] |  | 8.6%
6 | CCCC(CC)OC(=O)c1cc(=O)c2c(O)nc3c(C)c(C)ccc3c2o1 (stereo not shown) [3-hexyl ester of 7,8-dimethyl-5-hydroxy-quinolo[4,3-b]pyran-4-one-2-carboxylic acid] | 96.1% | 
7 | Cc1ccc2c(nc(O)c3c(=O)cc(C(=O)OC(C)CC(C)C)oc32)c1C (stereo not shown) [4-methyl-2-pentyl ester of 7,8-dimethyl-5-hydroxy-quinolo[4,3-b]pyran-4-one-2-carboxylic acid] | 67.6% | 
8 | CCC(CC)OC(=O)c1cc(=O)c2c(O)nc3c(C)c(C)ccc3c2o1 [3-pentyl ester of 7,8-dimethyl-5-hydroxy-quinolo[4,3-b]pyran-4-one-2-carboxylic acid] | 65.3% | 
9 | Cc1ccc2c(nc(O)c3c(=O)cc(C(=O)OCc4ccccc4)oc32)c1C [benzyl ester of 7,8-dimethyl-5-hydroxy-quinolo[4,3-b]pyran-4-one-2-carboxylic acid, reference compound] |  | 13.2%
10 | Cc1ccc2c(nc(O)c3c(=O)cc(C(=O)OC(C)C(C)(C)C)oc32)c1C (stereo not shown) [3,3-dimethyl-2-butyl ester of 7,8-dimethyl-5-hydroxy-quinolo[4,3-b]pyran-4-one-2-carboxylic acid, reference compound] | 42.7% | 
11 | CCC(C)C(C)OC(=O)c1cc(=O)c2c(O)nc3c(C)c(C)ccc3c2o1 (stereo not shown) [3-methyl-2-pentyl ester of 7,8-dimethyl-5-hydroxy-quinolo[4,3-b]pyran-4-one-2-carboxylic acid] | 68.3% | 
12 | CCC(C)CCOC(=O)c1cc(=O)c2c(O)nc3c(C)c(C)ccc3c2o1 (stereo not shown) [3-methyl-1-pentyl ester of 7,8-dimethyl-5-hydroxy-quinolo[4,3-b]pyran-4-one-2-carboxylic acid] | 80.8% | 
13 | CCC(C)COC(=O)c1cc(=O)c2c(O)nc3ccc(C)cc3c2o1 (stereo not shown) [2-methyl-1-butyl ester of 9-methyl-5-hydroxy-quinolo[4,3-b]pyran-4-one-2-carboxylic acid] | 83% | 
14 | COC(=O)c1cc(=O)c2c(O)nc3c(C)c(C)ccc3c2o1 [methyl ester of 7,8-dimethyl-5-hydroxy-quinolo[4,3-b]pyran-4-one-2-carboxylic acid, reference compound] |  | 39.4%
15 | Cc1ccc2c(nc(O)c3c(=O)cc(C(=O)O)oc32)c1C [7,8-dimethyl-5-hydroxy-quinolo[4,3-b]pyran-4-one-2-carboxylic acid, reference compound] |  | 5.5%
16 | CCC(C)COC(=O)c1cc(=O)c2c(O)nc3c(C)c(C)ccc3c2o1 (stereo not shown) [2-methyl-1-butyl ester of 7,8-dimethyl-5-hydroxy-quinolo[4,3-b]pyran-4-one-2-carboxylic acid] | 99.8% | 
